Results reported in ChEMBL document CHEMBL1201862, “PubChem BioAssay data set” (2004).
Activity calls are given as the source filed them.

Tests used:
HEK293 = experiment: EBV LMP1 TES2 canonical NF-kB signalling blockers – cell-based, HEK293, luciferase, cherry-pick, dose response (AID 588343); type: functional; settings: Homo sapiens
[1] = biological target: Latent membrane protein 1 (Human herpesvirus 4 (strain B95-8), UniProt P03230); experiment: LMP1 TES1 pathway selectivity over dsRED control – imaging, HEK293T, dual-color eGFP/dsRED, cherry-picks, selectivity assay for LMP1 NF-kB inhibitor project, dose response (AID 588398); type: functional, cell-based
[2] = biological target: Transitional endoplasmic reticulum ATPase (Homo sapiens, UniProt P55072, C522A); experiment: C522A mutant p97 ATPase inhibitors, dose response, counter-screen for p97 inhibitor project, biochemical, luminescence (AID 1544)
[3] = biological target: Transitional endoplasmic reticulum ATPase (Homo sapiens, UniProt P55072); experiment: p97 ATPase inhibitors, dose response, biochemical (AID 1534)
[4] = biological target: Induced myeloid leukemia cell differentiation protein Mcl-1 (Homo sapiens, UniProt Q07820); type: functional
[5] = biological target: Glucose-6-phosphate 1-dehydrogenase (Homo sapiens, UniProt P11413); experiment: inhibition of Homo sapiens G6PD, dose series – biochemical, fluorescence, selectivity assay for P. falciparum G6PD inhibitor project, dose response (AID 504792); type: functional
[6] = biological target: T1, Cystic fibrosis transmembrane conductance regulator/Golgi-associated PDZ and coiled-coil motif-containing protein (Homo sapiens, UniProt P13569+Q9HD26); experiment: potency against CAL PDZ-peptide interaction – biochemical, fluorescence polarization, Cerulean-tagged CAL PDZ, cherry-picks, dose response (AID 504773)
Hexokinase HKDC1 = Hexokinase HKDC1 (Homo sapiens, UniProt Q2TB90); experiment: inhibition of HKDC1 glucose phosphorylation – biochemical, W721R variant, dose response (AID 504729); type: functional
Vero = experiment: viability of Vero cells under compound – cytotoxicity control for flavivirus capping enzyme inhibitors (AID 588742); type: functional; settings: Chlorocebus sabaeus
Genome polyprotein = Genome polyprotein (dengue virus type 2, UniProt P29990); experiment: flavivirus cap methylation enzyme inhibition – biochemical, confirmation dose response, primary screen (AID 588689); type: functional
[7] = biological target: T2, Polyadenylate-binding protein 1 (Homo sapiens, UniProt P11940); experiment: MLLE binding blockers, Cy5 peptide tracer – biochemical, fluorescence polarization, Cy5-PAM2 peptide, secondary, miRNA deadenylation inhibitor project, dose response (AID 602260); type: functional; settings: read-out: IC50_Mean
[8] = biological target: T2, Polyadenylate-binding protein 1; experiment: MLLE domain peptide-binding blockers, IC50 – biochemical, fluorescence polarization, FITC-PAM2 peptide, dose response (AID 602259); type: functional; settings: read-out: IC50_Mean
[9] = disruptors of CAL PDZ reporter peptide binding – biochemical, fluorescence polarization, untagged CAL PDZ, dry powder, dose response (AID 602255); type: functional
[10] = biological target: T1, Cystic fibrosis transmembrane conductance regulator/Golgi-associated PDZ and coiled-coil motif-containing protein; experiment: disruption of CAL PDZ–reporter peptide interaction – biochemical, fluorescence polarization, Cer-tagged CAL PDZ, dry powder, dose response (AID 602253); type: functional
[11] = viability of BHK-21 cells – cell-based, secondary screen, cytotoxicity control for flavivirus guanylyltransferase probe project (AID 624078); type: functional
[12] = A549 cell cytotoxicity, dose response, cytotoxicity control, plate reader, cherry-pick, antagonist series (AID 743412); type: functional, cell-based
[13] = toxicity toward HepG2 liver cells – cell-based, plate reader, cherry-pick, antagonist series, cytotoxicity control, dose response (AID 743416); type: functional
[14] = biological target: T3, Tyrosyl-DNA phosphodiesterase 2 (Homo sapiens, UniProt O95551); experiment: potency against TDP2 phosphodiesterase activity – biochemical, epi absorbance, IC50, dose response (AID 743297)
T3 sequence (O95551 whole entry): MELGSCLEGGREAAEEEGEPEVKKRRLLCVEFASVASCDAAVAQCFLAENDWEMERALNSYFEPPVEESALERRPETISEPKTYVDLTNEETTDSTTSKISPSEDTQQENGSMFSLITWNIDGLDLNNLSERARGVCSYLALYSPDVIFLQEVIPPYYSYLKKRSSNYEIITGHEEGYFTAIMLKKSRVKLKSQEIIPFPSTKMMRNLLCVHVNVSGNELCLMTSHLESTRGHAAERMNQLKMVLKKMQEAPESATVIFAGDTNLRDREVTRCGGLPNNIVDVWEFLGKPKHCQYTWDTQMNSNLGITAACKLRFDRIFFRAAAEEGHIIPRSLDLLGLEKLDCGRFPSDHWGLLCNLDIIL

[15] = blockade of melanocortin 4 receptor signaling – cell-based, plate reader, cherry pick, counter-screen for LGR2 antagonist project, dose response (AID 743444); type: functional;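 note: transfected HEK 293 cells stimulated with alpha-MSH peptide; potency of inhibitors of the alpha-MSH evoked signal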
[16] = viability loss in HEK293 cells – cell-based, plate reader, cherry-picked samples, cytotoxicity control, dose response (AID 743446); type: functional
[17] = biological target: T4, Sentrin-specific protease 8 (Homo sapiens, UniProt Q96LD8); experiment: inhibition of human SENP8 cleavage activity – biochemical, luminescence, SAR follow-up (AID 504501); type: functional
T4 sequence (Q96LD8 whole entry): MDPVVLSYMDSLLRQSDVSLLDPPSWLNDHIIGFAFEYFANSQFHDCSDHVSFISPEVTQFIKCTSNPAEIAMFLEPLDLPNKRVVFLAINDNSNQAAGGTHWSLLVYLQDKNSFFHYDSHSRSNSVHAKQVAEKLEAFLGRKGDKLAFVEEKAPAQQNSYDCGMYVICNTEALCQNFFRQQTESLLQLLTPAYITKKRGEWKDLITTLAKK

Caspase-3 = biological target: T5, Caspase-3 (Homo sapiens, UniProt P42574); experiment: SAR Analysis of small molecule inhibitors of Sentrin-specific proteases (SENPs) using a Caspase-3 Selectivity assay. [Related pubchem assays (depositor defined):AID2540, AID2599, AID434973, AID489001]; type: functional
T5 sequence (P42574 whole entry): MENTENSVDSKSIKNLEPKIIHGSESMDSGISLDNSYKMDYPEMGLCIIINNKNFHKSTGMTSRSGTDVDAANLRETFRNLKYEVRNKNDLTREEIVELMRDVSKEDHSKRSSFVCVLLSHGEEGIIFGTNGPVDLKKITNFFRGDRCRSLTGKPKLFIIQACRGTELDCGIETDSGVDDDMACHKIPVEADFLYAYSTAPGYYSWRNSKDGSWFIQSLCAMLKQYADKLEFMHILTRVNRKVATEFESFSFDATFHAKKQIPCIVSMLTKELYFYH

[18] = biological target: T6, Sentrin-specific protease 6 (Homo sapiens, UniProt Q9GZR1); experiment: SAR Analysis of small molecule inhibitors of Sentrin-specific protease 6 (SENP6) using a Luminescent assay. [Related pubchem assays (depositor defined):AID2582, AID2599]; type: functional
T6 sequence (Q9GZR1 whole entry): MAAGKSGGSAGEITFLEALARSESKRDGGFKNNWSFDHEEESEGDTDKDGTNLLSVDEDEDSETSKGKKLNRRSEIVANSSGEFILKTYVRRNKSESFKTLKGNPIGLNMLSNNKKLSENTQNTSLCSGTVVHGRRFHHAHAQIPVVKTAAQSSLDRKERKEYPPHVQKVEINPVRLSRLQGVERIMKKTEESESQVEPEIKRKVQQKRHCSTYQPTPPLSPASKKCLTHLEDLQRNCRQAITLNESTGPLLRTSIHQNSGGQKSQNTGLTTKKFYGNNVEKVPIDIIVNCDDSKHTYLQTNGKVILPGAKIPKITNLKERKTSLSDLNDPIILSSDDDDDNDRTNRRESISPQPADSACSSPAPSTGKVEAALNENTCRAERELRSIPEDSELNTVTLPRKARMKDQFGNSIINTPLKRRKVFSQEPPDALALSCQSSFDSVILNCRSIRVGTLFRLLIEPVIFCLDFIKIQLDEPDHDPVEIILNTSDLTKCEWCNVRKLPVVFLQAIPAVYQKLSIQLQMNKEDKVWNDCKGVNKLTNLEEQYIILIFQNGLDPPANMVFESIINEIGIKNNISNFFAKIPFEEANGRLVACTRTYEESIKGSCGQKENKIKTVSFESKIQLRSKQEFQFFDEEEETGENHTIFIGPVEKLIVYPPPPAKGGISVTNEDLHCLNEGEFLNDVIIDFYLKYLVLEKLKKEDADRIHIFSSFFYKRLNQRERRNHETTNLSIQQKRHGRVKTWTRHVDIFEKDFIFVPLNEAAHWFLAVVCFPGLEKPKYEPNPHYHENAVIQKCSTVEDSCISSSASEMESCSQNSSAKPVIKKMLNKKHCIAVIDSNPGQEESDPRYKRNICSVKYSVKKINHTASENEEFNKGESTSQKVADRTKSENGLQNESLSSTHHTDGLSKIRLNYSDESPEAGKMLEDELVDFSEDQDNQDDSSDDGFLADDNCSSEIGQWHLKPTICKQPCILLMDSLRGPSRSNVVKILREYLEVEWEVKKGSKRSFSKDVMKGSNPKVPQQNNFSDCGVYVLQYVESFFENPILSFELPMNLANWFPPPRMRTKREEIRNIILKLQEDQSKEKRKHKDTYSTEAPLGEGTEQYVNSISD

[19] = biological target: T7, Sentrin-specific protease 7 (Homo sapiens, UniProt Q9BQF6); experiment: inhibition of human SENP7 cleavage activity – biochemical, luminescence, SAR follow-up (AID 504497); type: functional
T7 sequence (Q9BQF6 whole entry): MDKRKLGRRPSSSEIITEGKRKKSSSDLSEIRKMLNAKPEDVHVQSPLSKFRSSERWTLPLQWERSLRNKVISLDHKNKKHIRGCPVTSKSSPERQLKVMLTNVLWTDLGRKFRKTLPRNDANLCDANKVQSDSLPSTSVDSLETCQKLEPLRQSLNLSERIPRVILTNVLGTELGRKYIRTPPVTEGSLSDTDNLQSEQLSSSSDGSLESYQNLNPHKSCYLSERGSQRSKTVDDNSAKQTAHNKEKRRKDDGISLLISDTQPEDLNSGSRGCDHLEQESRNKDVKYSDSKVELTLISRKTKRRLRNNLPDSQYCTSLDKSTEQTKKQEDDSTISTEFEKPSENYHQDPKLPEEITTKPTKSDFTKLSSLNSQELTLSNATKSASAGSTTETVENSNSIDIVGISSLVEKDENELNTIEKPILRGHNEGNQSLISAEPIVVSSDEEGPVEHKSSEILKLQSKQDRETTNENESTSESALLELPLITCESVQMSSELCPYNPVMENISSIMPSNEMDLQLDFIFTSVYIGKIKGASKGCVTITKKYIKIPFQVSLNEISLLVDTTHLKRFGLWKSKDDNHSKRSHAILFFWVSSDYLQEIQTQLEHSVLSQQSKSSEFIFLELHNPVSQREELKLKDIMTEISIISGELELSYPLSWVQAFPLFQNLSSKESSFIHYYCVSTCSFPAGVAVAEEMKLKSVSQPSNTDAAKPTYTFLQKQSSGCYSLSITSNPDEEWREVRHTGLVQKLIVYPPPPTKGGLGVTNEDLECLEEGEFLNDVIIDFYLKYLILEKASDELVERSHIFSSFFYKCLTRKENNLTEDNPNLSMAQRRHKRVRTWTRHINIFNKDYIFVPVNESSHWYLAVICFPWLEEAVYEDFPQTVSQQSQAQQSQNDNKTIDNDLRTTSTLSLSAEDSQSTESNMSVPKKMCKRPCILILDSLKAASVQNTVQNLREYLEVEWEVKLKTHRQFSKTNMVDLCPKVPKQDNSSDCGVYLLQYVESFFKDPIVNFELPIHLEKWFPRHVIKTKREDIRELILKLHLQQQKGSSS

T1 sequence (P13569 whole entry, other chains not shown): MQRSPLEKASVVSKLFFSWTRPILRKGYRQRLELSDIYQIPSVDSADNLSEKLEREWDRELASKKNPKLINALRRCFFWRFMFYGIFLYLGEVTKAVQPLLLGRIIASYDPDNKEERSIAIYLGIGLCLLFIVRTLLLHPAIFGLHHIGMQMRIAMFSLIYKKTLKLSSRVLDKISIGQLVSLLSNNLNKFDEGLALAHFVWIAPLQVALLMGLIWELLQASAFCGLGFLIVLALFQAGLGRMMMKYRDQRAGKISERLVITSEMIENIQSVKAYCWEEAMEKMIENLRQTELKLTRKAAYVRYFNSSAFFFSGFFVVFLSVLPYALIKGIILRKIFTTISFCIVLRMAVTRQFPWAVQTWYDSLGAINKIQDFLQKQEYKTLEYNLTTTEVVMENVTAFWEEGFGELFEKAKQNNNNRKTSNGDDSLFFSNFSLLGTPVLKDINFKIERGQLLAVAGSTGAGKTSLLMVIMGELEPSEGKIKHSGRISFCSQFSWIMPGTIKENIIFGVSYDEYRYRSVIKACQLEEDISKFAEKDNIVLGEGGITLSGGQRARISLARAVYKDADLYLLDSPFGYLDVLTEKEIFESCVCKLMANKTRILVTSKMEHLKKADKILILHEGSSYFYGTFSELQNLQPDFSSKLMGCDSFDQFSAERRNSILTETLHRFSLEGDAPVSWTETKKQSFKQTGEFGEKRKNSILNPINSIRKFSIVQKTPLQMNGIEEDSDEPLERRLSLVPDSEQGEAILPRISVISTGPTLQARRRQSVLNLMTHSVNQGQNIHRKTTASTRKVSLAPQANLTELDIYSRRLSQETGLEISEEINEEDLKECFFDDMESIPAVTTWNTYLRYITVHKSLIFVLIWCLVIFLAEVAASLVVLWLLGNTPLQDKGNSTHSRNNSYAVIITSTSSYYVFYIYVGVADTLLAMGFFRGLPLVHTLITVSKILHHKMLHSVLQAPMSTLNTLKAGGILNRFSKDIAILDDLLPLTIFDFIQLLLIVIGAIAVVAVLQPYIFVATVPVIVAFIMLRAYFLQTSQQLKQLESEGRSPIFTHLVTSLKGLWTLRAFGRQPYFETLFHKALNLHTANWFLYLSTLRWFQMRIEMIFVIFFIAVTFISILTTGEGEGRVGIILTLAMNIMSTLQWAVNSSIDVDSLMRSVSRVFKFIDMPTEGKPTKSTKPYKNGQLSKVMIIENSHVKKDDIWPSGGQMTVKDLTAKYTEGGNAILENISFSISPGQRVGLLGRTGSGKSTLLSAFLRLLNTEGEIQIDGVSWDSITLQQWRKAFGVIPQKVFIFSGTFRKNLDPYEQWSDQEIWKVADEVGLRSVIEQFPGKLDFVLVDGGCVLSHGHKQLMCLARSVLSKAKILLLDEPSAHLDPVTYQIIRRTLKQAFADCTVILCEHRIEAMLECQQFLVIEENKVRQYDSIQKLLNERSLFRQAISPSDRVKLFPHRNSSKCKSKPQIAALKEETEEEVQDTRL
T2 sequence (P11940 whole entry, the tested form may be a part): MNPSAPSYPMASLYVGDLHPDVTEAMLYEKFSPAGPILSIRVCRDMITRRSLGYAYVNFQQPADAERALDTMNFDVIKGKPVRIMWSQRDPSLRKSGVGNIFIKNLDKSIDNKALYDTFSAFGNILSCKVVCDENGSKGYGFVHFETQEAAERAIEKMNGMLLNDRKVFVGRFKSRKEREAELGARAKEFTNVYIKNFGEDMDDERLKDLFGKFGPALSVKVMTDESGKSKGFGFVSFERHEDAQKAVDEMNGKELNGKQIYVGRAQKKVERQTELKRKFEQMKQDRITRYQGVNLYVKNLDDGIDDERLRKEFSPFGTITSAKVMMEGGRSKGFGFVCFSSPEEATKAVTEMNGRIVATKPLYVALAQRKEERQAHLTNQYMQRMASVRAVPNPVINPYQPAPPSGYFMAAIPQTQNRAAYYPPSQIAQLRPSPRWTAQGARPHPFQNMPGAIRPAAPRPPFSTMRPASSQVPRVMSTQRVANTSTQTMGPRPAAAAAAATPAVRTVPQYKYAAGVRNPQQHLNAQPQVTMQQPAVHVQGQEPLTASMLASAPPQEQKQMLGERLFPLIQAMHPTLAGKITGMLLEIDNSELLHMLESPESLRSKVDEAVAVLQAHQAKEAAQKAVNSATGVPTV
Genome polyprotein, sequence (P29990 2492-3391 limits assumed): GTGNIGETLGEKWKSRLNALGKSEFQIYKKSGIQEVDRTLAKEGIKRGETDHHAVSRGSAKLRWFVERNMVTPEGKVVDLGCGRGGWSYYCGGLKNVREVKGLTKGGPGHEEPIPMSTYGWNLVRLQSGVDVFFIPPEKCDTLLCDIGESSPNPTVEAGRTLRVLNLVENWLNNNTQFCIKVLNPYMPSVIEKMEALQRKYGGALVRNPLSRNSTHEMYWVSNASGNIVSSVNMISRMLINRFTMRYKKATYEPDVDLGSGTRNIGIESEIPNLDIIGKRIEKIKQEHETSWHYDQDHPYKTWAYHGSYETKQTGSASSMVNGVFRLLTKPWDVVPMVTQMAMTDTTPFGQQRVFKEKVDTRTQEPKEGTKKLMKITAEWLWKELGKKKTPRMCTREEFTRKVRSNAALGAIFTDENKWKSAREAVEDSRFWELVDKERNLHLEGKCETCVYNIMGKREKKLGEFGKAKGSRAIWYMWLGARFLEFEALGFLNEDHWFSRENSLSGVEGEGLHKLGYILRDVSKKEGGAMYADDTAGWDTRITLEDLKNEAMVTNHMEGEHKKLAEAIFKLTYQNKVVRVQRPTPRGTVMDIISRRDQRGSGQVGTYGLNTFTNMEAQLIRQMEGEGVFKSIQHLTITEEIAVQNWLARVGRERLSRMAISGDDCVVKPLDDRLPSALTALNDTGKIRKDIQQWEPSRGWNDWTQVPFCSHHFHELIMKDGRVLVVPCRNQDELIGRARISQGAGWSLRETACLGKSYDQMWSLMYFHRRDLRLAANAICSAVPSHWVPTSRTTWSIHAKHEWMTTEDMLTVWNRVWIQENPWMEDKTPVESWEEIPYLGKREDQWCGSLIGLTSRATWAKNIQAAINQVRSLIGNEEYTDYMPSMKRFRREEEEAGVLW
Latent membrane protein 1, sequence (P03230 whole entry): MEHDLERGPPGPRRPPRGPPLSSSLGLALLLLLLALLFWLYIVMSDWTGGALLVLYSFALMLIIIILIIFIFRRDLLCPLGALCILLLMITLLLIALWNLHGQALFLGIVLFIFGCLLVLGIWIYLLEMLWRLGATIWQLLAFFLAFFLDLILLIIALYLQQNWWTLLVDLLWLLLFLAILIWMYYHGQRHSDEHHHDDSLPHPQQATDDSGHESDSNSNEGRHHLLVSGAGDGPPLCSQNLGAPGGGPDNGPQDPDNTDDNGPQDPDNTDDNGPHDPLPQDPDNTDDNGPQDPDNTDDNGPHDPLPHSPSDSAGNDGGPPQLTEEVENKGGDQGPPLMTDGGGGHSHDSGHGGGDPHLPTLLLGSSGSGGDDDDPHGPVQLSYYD
Transitional endoplasmic reticulum ATPase (Homo sapiens, UniProt P55072, C522A), sequence (P55072 2-806 C522A limits assumed): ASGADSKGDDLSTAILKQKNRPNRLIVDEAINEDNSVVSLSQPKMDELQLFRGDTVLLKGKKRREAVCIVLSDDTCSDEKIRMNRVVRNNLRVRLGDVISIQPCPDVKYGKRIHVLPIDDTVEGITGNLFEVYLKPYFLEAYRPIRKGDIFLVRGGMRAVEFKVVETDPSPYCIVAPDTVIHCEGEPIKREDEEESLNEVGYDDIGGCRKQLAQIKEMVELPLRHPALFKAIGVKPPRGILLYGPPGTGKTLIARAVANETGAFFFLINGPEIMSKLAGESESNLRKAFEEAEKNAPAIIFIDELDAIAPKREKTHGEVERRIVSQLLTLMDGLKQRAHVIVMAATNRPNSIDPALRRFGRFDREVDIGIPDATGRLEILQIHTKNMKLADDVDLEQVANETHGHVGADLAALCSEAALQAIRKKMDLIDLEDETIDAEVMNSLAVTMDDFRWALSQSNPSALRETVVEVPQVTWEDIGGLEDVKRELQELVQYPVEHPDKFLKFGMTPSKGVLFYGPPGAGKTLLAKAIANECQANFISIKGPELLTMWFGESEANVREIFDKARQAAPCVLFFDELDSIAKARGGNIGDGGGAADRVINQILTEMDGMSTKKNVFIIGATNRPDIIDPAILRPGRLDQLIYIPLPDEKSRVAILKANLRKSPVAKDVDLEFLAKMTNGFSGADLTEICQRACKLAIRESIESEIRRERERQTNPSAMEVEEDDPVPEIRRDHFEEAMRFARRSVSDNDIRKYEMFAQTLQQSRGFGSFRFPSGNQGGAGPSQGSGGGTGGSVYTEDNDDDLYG
Glucose-6-phosphate 1-dehydrogenase, sequence (P11413 whole entry): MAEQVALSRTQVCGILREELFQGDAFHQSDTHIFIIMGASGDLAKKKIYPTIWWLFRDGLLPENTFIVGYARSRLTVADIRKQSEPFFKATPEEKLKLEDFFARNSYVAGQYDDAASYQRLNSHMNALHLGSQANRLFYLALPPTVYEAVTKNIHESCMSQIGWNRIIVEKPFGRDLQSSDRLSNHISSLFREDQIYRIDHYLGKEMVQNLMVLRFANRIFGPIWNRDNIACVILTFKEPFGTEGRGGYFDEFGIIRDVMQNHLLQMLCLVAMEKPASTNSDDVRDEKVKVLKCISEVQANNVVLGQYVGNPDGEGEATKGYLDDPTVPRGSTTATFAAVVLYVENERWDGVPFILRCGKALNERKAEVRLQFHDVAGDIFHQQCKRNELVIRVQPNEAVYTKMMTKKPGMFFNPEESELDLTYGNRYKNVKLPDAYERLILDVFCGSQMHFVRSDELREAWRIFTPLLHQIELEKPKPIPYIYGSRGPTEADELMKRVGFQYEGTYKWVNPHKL
Induced myeloid leukemia cell differentiation protein Mcl-1, sequence (Q07820 whole entry): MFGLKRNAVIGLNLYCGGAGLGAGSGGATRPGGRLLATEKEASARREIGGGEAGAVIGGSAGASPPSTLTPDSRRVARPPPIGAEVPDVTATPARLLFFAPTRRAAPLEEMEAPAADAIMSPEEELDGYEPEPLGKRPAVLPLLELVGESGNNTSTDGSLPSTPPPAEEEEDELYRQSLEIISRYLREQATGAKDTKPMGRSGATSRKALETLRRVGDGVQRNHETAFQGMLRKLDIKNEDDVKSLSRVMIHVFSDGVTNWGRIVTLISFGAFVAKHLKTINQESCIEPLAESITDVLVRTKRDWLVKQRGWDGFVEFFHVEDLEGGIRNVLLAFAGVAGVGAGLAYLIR

For COc1cccc(CNc2ncnc3ccc(-c4c(C)noc4C)cc23)c1, the AC50 (HEK293) was 10.3 µM (active) and the AC50 [1] was 14.1 µM (active).
In the case of O=C(O)CSc1cc(NS(=O)(=O)c2cccc([N+](=O)[O-])c2)c2ccccc2c1O, the IC50 [2] is reported as 17.4 µM (not active), the IC50 [3] is reported as > 50 µM (not active) and the IC50 [4] is reported as 13.6 µM (active). For the same compound, the IC50 [5] was 12.2 µM (active), the AC50 [6] was 21.7 µM (active) and the IC50 (Hexokinase HKDC1) was 5.62 µM (active). For the same compound, the CC50 (Vero) was 26.5 µM (active), the IC50 (Genome polyprotein) was 5.4 µM (active) and the IC50 [7] was > 66 µM (inactive). The IC50 [8] was 35.5 µM (inactive), the AC50 [9] was 52 µM (active) and the AC50 [10] was 44.7 µM (active). For the same compound, the CC50 [11] was 7.45 µM (active), the AC50 [12] was 17.6 µM (active) and the AC50 [13] was 12.1 µM (active). For the same compound, the IC50 [14] was 12.9 µM (inactive), the AC50 [15] was 42.7 µM (active) and the AC50 [16] was 21.2 µM (active).
In the case of CC(N/C=C1/C(=O)N(c2nc3ccccc3s2)N=C1C(F)(F)F)C12CC3CC(CC(C3)C1)C2 (centres undefined), the IC50 [17] is reported as 86.9 µM (active), the IC50 (Caspase-3) is reported as 40.7 µM (active) and the IC50 [18] is reported as 77.3 µM (active). The IC50 [19] was 87.3 µM (active).
